Reference: patent US3957811A, “Process for 3-(1-[arylmethyl]tetrazol-5-yl)penams” (Pfizer Inc., priority 1974, dated 1976)
Values after ≈ are worked out from the molar mass of the structure shown. Like-named read-outs stand apart in the source and are kept apart here.

Tested on: Streptococcus pyogenes
Assay: In vitro MIC, conventional two-fold serial dilution technique in Brain-Heart Infusion broth, vs. Strep. pyogenes
Assay type: cell-based
Settings: read-out: MIC vs. Strep. pyogenes
Procedure: The antibacterial penam compounds, prepared from the products of the instant process invention, show activity against a wide variety of gram-positive and gram-negative bacteria. […] The broth is inoculated with the bacterial culture, and with the test antibiotic, and then it is incubated overnight. On the next day, the test is read visually. The minimum inhibitory concentration (MIC) is the lowest concentration of antibiotic which prevents turbidity, i.e., which prevents growth of the microorganism. In vitro activities of several of the penam compounds of the invention are presented later in this specification.
In vitro antibacterial activities for a number of compounds prepared by the procedure of Example 8 are presented below.
In Table II, the minimum inhibitory concentrations (MIC's) of compounds wherein R is hydrogen, against a strain of Streptococcus pyogenes are reported.

[1] = compounds wherein R is hydrogen, a strain of Streptococcus pyogenes, Brain-Heart Infusion broth, overnight

| MIC [1] | SMILES | MIC (Streptococcus pyogenes) |
| --- | --- | --- |
| < 0.1 µg/mL | CCN=C(NCC)SCC(=O)N[C@@H]1C(=O)N2[C@@H]1SC(C)(C)[C@@H]2c1nnn[nH]1 [2-(N,N'-diethylamidinothio)acetyl] |  |
| < 0.1 µg/mL | CC1(C)S[C@@H]2[C@H](NC(=O)Cc3ccccc3)C(=O)N2[C@H]1c1nnn[nH]1 [2-phenylacetyl, 6-(2-Phenylacetamido)-2,2-dimethyl-3-(5-tetrazolyl)penam] |  |
| 0.1 µg/mL (≈ 0.264 µM) | CC1(C)S[C@@H]2[C@H](NC(=O)[C@H](N)c3cccs3)C(=O)N2[C@H]1c1nnn[nH]1 [D-2-amino-2-(2-thienyl)acetyl] |  |
| 0.39 µg/mL (≈ 1.01 µM) | CC1(C)S[C@@H]2[C@H](NC(=O)[C@H](N)Cc3ccccc3)C(=O)N2[C@H]1c1nnn[nH]1 [D-2-amino-3-phenylpropionyl] |  |
| < 0.1 µg/mL | CC1(C)S[C@@H]2[C@H](NC(=O)[C@@H](N)c3ccc(O)cc3)C(=O)N2[C@H]1c1nnn[nH]1 [L-2-amino-2-(p-hydroxyphenyl)acetyl] |  |
|  | CC1(C)S[C@@H]2[C@H](NC(=O)[C@H](N)c3ccc(O)cc3)C(=O)N2[C@H]1c1nnn[nH]1 [D-2-amino-2-(p-hydroxyphenyl)acetyl, 6-(D-2-amino-2-[p-hydroxyphenyl]acetamido)-2,2-dimethyl-3-(5-tetrazolyl)penam] | < 0.1 µg/mL |
| 0.2 µg/mL (≈ 0.589 µM) | CC(C)[C@@H](N)C(=O)N[C@@H]1C(=O)N2[C@@H]1SC(C)(C)[C@@H]2c1nnn[nH]1 [D-2-amino-3-methylbutyryl] |  |
| < 0.1 µg/mL | CC1(C)S[C@@H]2[C@H](NC(=O)CBr)C(=O)N2[C@H]1c1nnn[nH]1 [2-bromoacetyl] |  |
| < 0.2 µg/mL | COc1cccc(OC)c1C(=O)N[C@@H]1C(=O)N2[C@@H]1SC(C)(C)[C@@H]2c1nnn[nH]1 [2,6-dimethoxybenzoyl] |  |
| < 0.39 µg/mL | CC1(C)S[C@@H]2[C@H](NC(=O)Cn3cnnn3)C(=O)N2[C@H]1c1nnn[nH]1 [2-(1-tetrazolyl)acetyl] |  |
| < 0.1 µg/mL | CC(=O)N[C@@H]1C(=O)N2[C@@H]1SC(C)(C)[C@@H]2c1nnn[nH]1 [acetyl] |  |
|  | CC1(C)S[C@@H]2[C@H](NC(=O)C(N)c3cc(O)ccc3Br)C(=O)N2[C@H]1c1nnn[nH]1 (mixture of isomers) | < 0.1 µg/mL |
| < 0.1 µg/mL | CC1(C)S[C@@H]2[C@H](NC(=O)[C@H](N)c3cccc(F)c3)C(=O)N2[C@H]1c1nnn[nH]1 [D-2-amino-2-(m-fluorophenyl)acetyl] |  |
| < 0.1 µg/mL | CC1(C)S[C@@H]2[C@H](NC(=O)C=CC(N)=O)C(=O)N2[C@H]1c1nnn[nH]1 [3-(carbamoyl)acryloyl] |  |
| < 0.1 µg/mL | CCOC(=O)N[C@@H]1C(=O)N2[C@@H]1SC(C)(C)[C@@H]2c1nnn[nH]1 [ethoxycarbonyl] |  |
| < 0.1 µg/mL | CC1(C)S[C@@H]2[C@H](NC(=O)[C@H](N)c3ccccc3)C(=O)N2[C@H]1c1nnn[nH]1 [D-2-amino-2-phenylacetyl] |  |
| < 0.1 µg/mL | CC1(C)S[C@@H]2[C@H](NC(=O)OCc3ccccc3)C(=O)N2[C@H]1c1nnn[nH]1 [benzyloxycarbonyl] |  |
| 0.1 µg/mL (≈ 0.236 µM) | CC1(C)S[C@@H]2[C@H](NC(=O)[C@H](N)c3ccc(O)c(Cl)c3)C(=O)N2[C@H]1c1nnn[nH]1 |  |
| 0.1 µg/mL (≈ 0.325 µM) | CC1(C)S[C@@H]2[C@H](NC(=O)CC#N)C(=O)N2[C@H]1c1nnn[nH]1 [2-cyanoacetyl] |  |
| < 0.1 µg/mL | CC1(C)S[C@@H]2[C@H](NC(=O)[C@H](N)c3cccc(O)c3)C(=O)N2[C@H]1c1nnn[nH]1 [D-2-amino-2-(m-hydroxyphenyl)acetyl] |  |
| < 0.1 µg/mL | CC1(C)S[C@@H]2[C@H](NC(=O)C(N=[N+]=[N-])c3ccccc3)C(=O)N2[C@H]1c1nnn[nH]1 (stereo partly shown) [2-azido-2-phenylacetyl] |  |
|  | CC1(C)S[C@@H]2[C@H](NC(=O)CSc3ccncc3)C(=O)N2[C@H]1c1nnn[nH]1 [2-(4-pyridylthio)acetyl] | < 0.1 µg/mL |
| < 0.1 µg/mL | CC1(C)S[C@@H]2[C@H](NC(=O)C(N)c3ccc(O)c(O)c3)C(=O)N2[C@H]1c1nnn[nH]1 (mixture of isomers) [DL-2-amino-2-(3,4-dihydroxyphenyl)acetyl] |  |
| < 0.1 µg/mL | CC1(C)S[C@@H]2[C@H](NC(=O)COc3ccccc3)C(=O)N2[C@H]1c1nnn[nH]1 [2-phenoxyacetyl] |  |
| 25 µg/mL (≈ 68.4 µM) | CC1(C)S[C@@H]2[C@H](NC(=O)C3(N)CCCCC3)C(=O)N2[C@H]1c1nnn[nH]1 [1-aminocyclohexylcarbonyl] |  |
|  | CC1(C)S[C@@H]2[C@H](NC(=O)Oc3ccccc3)C(=O)N2[C@H]1c1nnn[nH]1 [phenoxycarbonyl] | < 0.1 µg/mL |
| < 0.1 µg/mL | CC1(C)S[C@@H]2[C@H](N)C(=O)N2[C@H]1c1nnn[nH]1 [hydrogen, 6-Amino-2,2-dimethyl-3-(5-tetrazolyl)penam] |  |
| < 0.1 µg/mL | CC1(C)S[C@@H]2[C@H](NC(=O)C(N)c3ccc(Cl)cc3)C(=O)N2[C@H]1c1nnn[nH]1 (mixture of isomers) [DL-2-amino-2-(p-chlorophenyl)acetyl] |  |
